From the NIST ThermoML archive (doi:10.1016/j.fluid.2004.10.022)
± gives the expanded uncertainty stated by the source.

Assays:
[1] = Liquid; for mass density: 101.33 kPa
[2] = refractive index (Na D-line) (dimensionless); conditions: 298.15 K; 101.33 kPa; Liquid; Standard Abbe refractometry

CC(=O)OC(C)(C)C [1,1-dimethylethyl ethanoate]
[1]
Conditions	mass density [kg/m3]	vapor or sublimation pressure [kPa]
298.15 K	860.53 ± 0.62	–
307.53 K	–	8.99 ± 0.13
311.79 K	–	10.99 ± 0.13
315.64 K	–	13.09 ± 0.15
319.82 K	–	15.73 ± 0.17
324.28 K	–	19.04 ± 0.18
325.46 K	–	20 ± 0.2
328.94 K	–	23.09 ± 0.21
332.36 K	–	26.48 ± 0.23
336.12 K	–	30.67 ± 0.26
339.58 K	–	35.02 ± 0.29
342.46 K	–	39.04 ± 0.31
345.75 K	–	43.98 ± 0.34
348.84 K	–	49.09 ± 0.37
352.07 K	–	54.94 ± 0.38
354.95 K	–	60.02 ± 0.43
357.17 K	–	65.33 ± 0.48
359.63 K	–	70.88 ± 0.49
361.83 K	–	76.15 ± 0.51
363.85 K	–	81.26 ± 0.54
366 K	–	87.01 ± 0.57
367.99 K	–	92.58 ± 0.59
369.46 K	–	96.91 ± 0.62
370.68 K	–	100.64 ± 0.73
370.86 K	–	100 ± 0.73
372.26 K	–	105.59 ± 0.82

Conditions	refractive index
[2]	1.384 ± 0.0007

CC(C)CO [2-methyl-1-propanol]
[1]
Conditions	mass density [kg/m3]	vapor or sublimation pressure [kPa]
298.15 K	797.83 ± 0.62	–
342.52 K	–	20 ± 0.43
381.09 K	–	100 ± 0.45

Conditions	refractive index
[2]	1.3937 ± 0.0008

CC(C)(C)O [2-methylpropan-2-ol]
[1]
Conditions	mass density [kg/m3]	vapor or sublimation pressure [kPa]
300.93 K	–	6.93 ± 0.13
303.15 K	775.4 ± 0.65	–
304.86 K	–	8.76 ± 0.14
309.12 K	–	11.16 ± 0.15
313.25 K	–	14.03 ± 0.17
315.48 K	–	15.81 ± 0.2
320.17 K	–	20 ± 0.24
320.75 K	–	20.63 ± 0.24
325.05 K	–	25.76 ± 0.27
328.35 K	–	30.37 ± 0.32
331.45 K	–	35.33 ± 0.36
334.15 K	–	40.21 ± 0.4
336.65 K	–	45.17 ± 0.43
338.85 K	–	49.98 ± 0.47
341.05 K	–	55.12 ± 0.5
342.95 K	–	59.92 ± 0.54
344.85 K	–	65.12 ± 0.57
346.45 K	–	69.66 ± 0.61
348.15 K	–	74.84 ± 0.64
349.75 K	–	79.98 ± 0.68
351.25 K	–	85.09 ± 0.71
352.65 K	–	90.08 ± 0.75
353.95 K	–	94.97 ± 0.78
355.15 K	–	99.63 ± 0.67
355.59 K	–	100 ± 0.8
355.65 K	–	101.33 ± 0.81
356.55 K	–	105.13 ± 0.87
357.65 K	–	109.82 ± 0.88
358.85 K	–	115.07 ± 0.94
359.83 K	–	119.91 ± 1

Conditions	refractive index
[2]	1.3851 ± 0.0007

CC(=O)OCC(C)C [2-methylpropyl ethanoate]
[1]
Conditions	mass density [kg/m3]	vapor or sublimation pressure [kPa]
293.15 K	866.12 ± 0.62	–
307.43 K	–	3.99 ± 0.1
315.56 K	–	5.99 ± 0.1
322.93 K	–	8.48 ± 0.12
328.64 K	–	10.98 ± 0.14
335.75 K	–	14.98 ± 0.15
341.55 K	–	18.96 ± 0.18
342.95 K	–	20 ± 0.2
346.88 K	–	23.44 ± 0.21
351.45 K	–	27.95 ± 0.24
355.75 K	–	32.86 ± 0.27
359.66 K	–	37.89 ± 0.29
363.22 K	–	42.93 ± 0.32
366.39 K	–	47.84 ± 0.35
368.76 K	–	51.85 ± 0.38
371.61 K	–	57.06 ± 0.4
374.55 K	–	62.82 ± 0.43
376.93 K	–	67.79 ± 0.46
379.15 K	–	72.78 ± 0.48
381.03 K	–	77.2 ± 0.52
383.63 K	–	83.72 ± 0.55
385.84 K	–	89.68 ± 0.57
387.69 K	–	94.78 ± 0.59
389.16 K	–	98.95 ± 0.52
389.9 K	–	100 ± 0.64
391.39 K	–	105.57 ± 0.77

Conditions	refractive index
[2]	1.3876 ± 0.0007
